According to paper PMC11085077, “Designing Antitrypanosomal and Antileishmanial BODIPY Derivatives: A Computational and In Vitro Assessment” (Molecules, 2024):
Values joined by “and” are separate entries in the source; they are usually repeats but may differ in a detail not shown here. Equal entries are not always repeated.

What was measured:
[1] = test system: T. brucei BSF; assay: Antitrypanosomal activity, alamarBlue assay; assay type: cell-based, Trypanosoma brucei; settings: for Selectivity Index (SI) T. brucei: SI = IC50 MRC-5/IC50 parasite; for IC50: bloodstream form, 72 h incubation, alamarBlue, error reported as σ; for antitrypanosomal activity (in words): classification used for docking analysis
Procedure: The in vitro antitrypanosomal and antileishmanial activity of the BODIPY derivatives were evaluated on the bloodstream form (BSF) of T. brucei and the promastigote form of L. major parasites. The toxicity of the compounds was determined after 72 h of incubation using the alamarBlue assay (for T. brucei) and the MTT assay (for L. major). The cytotoxicity of the compounds on a healthy human cell line (human lung fibroblast, MRC-5) was also determined after 72 h of incubation using the alamarBlue assay. The data were expressed as the half maximal inhibitory concentration (IC50). The selectivity index (SI) of each derivative was calculated by dividing the IC50 of MRC-5 cells into the IC50 of T. brucei or L. major.
T. brucei (Lister 427, antigenic type MiTat 1.2, clone 221a, bloodstream forms, “single marker” S427 (S16)) were cultured at 37 °C, 5% CO2 in HMI-9 medium supplemented with 10% heat-inactivated fetal bovine serum (hiFBS, Invitrogen, Carlsbad, CA, USA), as previously described.
The antitrypanosomal activity of the BODIPY derivatives was determined by the alamarBlue® assay (ThermoFisher Scientific, Waltham, MA, USA). The stock solutions of the compounds were prepared in DMSO and the final DMSO percentage in each well was adjusted to be less than 1%. A total of 2 × 10^4 parasites per mL were incubated at 37 °C, 5% CO2 in 96-well plates (50 μL/well) alone or in the presence of an increasing concentration of compounds for 72 h. A total of 20 μL of resazurin solution (110 ng/mL) was then added to each well, and the parasites were incubated for 4 h at 37 °C. Finally, cells were lysed with 50 μL per well of SDS 3%. The plate was incubated at 37 °C for an extra hour and then, fluorescence intensity was measured with an Infinite F200 plate reader (Tecan Austria, GmbH, Grödig, Austria), exciting at 550 nm and recording the emission at 590 nm. The results are expressed as the concentration of a compound that reduces cell growth by 50% versus untreated control cells (IC50). Data are presented as the average of at least three independent measurements, all conducted in triplicate conditions.

[2] = test system: L. major promastigotes; assay: Antileishmanial activity, MTT-based assay; assay type: cell-based, Leishmania major; settings: for Selectivity Index (SI) L. major: SI = IC50 MRC-5/IC50 parasite; for IC50: promastigotes, 72 h incubation, MTT, error reported as σ; for antileishmanial activity (in words): classification used for docking analysis
Procedure: The in vitro antitrypanosomal and antileishmanial activity of the BODIPY derivatives were evaluated on the bloodstream form (BSF) of T. brucei and the promastigote form of L. major parasites. The toxicity of the compounds was determined after 72 h of incubation using the alamarBlue assay (for T. brucei) and the MTT assay (for L. major). The cytotoxicity of the compounds on a healthy human cell line (human lung fibroblast, MRC-5) was also determined after 72 h of incubation using the alamarBlue assay. The data were expressed as the half maximal inhibitory concentration (IC50). The selectivity index (SI) of each derivative was calculated by dividing the IC50 of MRC-5 cells into the IC50 of T. brucei or L. major. L. major (MHOM/IL/80/Friedlin) promastigotes were cultured at 28 °C, 5% CO2 in modified RPMI-1640 medium (Invitrogen, Carlsbad, CA, USA) supplemented with 10% hiFBS [49]. Parasites were maintained in culture in their […] growth phase (below 2 million parasites per mL for T. brucei and 10 million parasites per mL for L. major). The antileishmanial activity of the BODIPY derivatives was assessed using an MTT-based assay (Sigma-Aldrich, St. Louis, MO, USA). The stock solutions of the compounds were prepared in DMSO and the final DMSO percentage in each well was adjusted to be less than 1%. A total of 4 × 10^6 parasites per mL were incubated at 28 °C in 96-well plates (50 μL/well) alone or in the presence of an increasing concentration of compounds DMSO for 72 h. A total of 10 μL of MTT (5 mg/mL) were added to each well and parasites were incubated for 4 h at 28 °C. Finally, cells were lysed with 50 μL/well of 20% SDS. The plate was incubated at 37 °C for an extra hour and then, absorbance was measured at the Infinite F200 plate reader (TECAN Austria, GmbH, Grödig, Austria) at a wavelength of 540 nm. The IC50 was calculated as described above. Data are presented as the average of at least three independent measurements, all conducted in triplicate conditions.

[3] = test system: MRC-5 cell line (human lung fibroblast); assay: Cytotoxicity, alamarBlue assay; assay type: cell-based; settings: 72 h incubation, error reported as σ
Procedure: The in vitro antitrypanosomal and antileishmanial activity of the BODIPY derivatives were evaluated on the bloodstream form (BSF) of T. brucei and the promastigote form of L. major parasites. The toxicity of the compounds was determined after 72 h of incubation using the alamarBlue assay (for T. brucei) and the MTT assay (for L. major). The cytotoxicity of the compounds on a healthy human cell line (human lung fibroblast, MRC-5) was also determined after 72 h of incubation using the alamarBlue assay. The data were expressed as the half maximal inhibitory concentration (IC50). The selectivity index (SI) of each derivative was calculated by dividing the IC50 of MRC-5 cells into the IC50 of T. brucei or L. major. MRC-5 cell line (human lung fibroblast) was grown in a monolayer at 37 °C, 5% CO2 in DMEM medium (1 g/L glucose) supplemented with 10% hiFBS, 100 U/mL penicillin, […] and 2 mM L-glutamine. Cytotoxicity was measured in MRC-5 through alamarBlue® assay (ThermoFisher Scientific). The stock solutions of the compounds were prepared in DMSO and the final DMSO percentage in each well was adjusted to be less than 1%. A total of 5 × 10^3 cells per mL were seeded in 96-well plates (100 μL/well) with 24 h of incubation time before compound addition at 37 °C, 5% CO2. Then, the compounds were added at increasing concentrations (from 0 to 100 μM) and the plates were incubated for 72 h. A total of 20 μL of resazurin solution (110 ng/mL) was added to each well and cells were incubated for 4 h. Then, cells were lysed with 50 μL/well of 3% SDS. The plate was incubated at 37 °C for an extra hour and then, the fluorescence intensity was measured at the Infinite F200 plate reader (TECAN Austria, GmbH), exciting at 550 nm and recording the emission at 590 nm. The results are expressed as the concentration of a compound that reduces cell growth by 50% versus untreated control cells (IC50). Data are presented as the average of at least three independent measurements, all conducted in triplicate conditions.

Row | Compound | Selectivity Index (SI) T. brucei [1] | IC50 [1] | Selectivity Index (SI) L. major [2] | IC50 [2] | IC50 ([3]; healthy human lung fibroblasts) | antileishmanial activity (in words) [2] | antitrypanosomal activity (in words) [1] | IC50 ([1]; Trypanosoma brucei) | IC50 ([2]; Leishmania major) | IC50 ([3]; MRC5, healthy human lung fibroblasts)
1 | CC1=CC(C)=[N+]2C1=C(c1ccccc1)c1c(C)cc(C)n1[B-]2(F)F [Compound 1a] | 1.76 | 38.2 ± 7.29 µM | 3.42 | 19.7 ± 3.94 µM | 67.2 ± 4.39 µM |  |  |  |  | 
2 | CC1=CC(C)=[N+]2C1=C(c1ccc(N(C)C)c3ccccc13)c1c(C)cc(C)n1[B-]2(F)F [Compound 1b] | 4.21 | 18.2 ± 3.63 µM | 16 and 15.93 | 4.84 ± 1.56 µM | 76.8 ± 5.33 µM | present antileishmanial activity |  |  |  | 
3 | CC1=CC(C)=[N+]2C1=C(c1c3ccccc3cc3ccccc13)c1c(C)cc(C)n1[B-]2(F)F [Compound 1c] | 1.07 | 77.1 ± 2.98 µM | 18 | 5.41 ± 0.43 µM | 82.14 ± 0.03 µM | present antileishmanial activity |  |  |  | 
4 | CC1=CC(C)=[N+]2C1=C(c1ccc(N(c3ccccc3)c3ccccc3)cc1)c1c(C)cc(C)n1[B-]2(F)F [Compound 1d] | 1.87 | 48.8 ± 3.29 µM | <0.91 | > 100 µM | 91.3 ± 6.31 µM |  |  |  |  | 
5 | CCn1c2ccccc2c2cc(C3=C4C(C)=CC(C)=[N+]4[B-](F)(F)n4c(C)cc(C)c43)ccc21 [Compound 1e] | 4.77 | 18.7 ± 2.67 µM | <0.89 | > 100 µM | 88.9 ± 3.82 µM |  |  |  |  | 
6 | CC1=CC(C)=[N+]2C1=C(c1cccs1)c1c(C)cc(C)n1[B-]2(F)F [Compound 1f] | 1.57 | 36.9 ± 7.43 µM | 0.90 | 64.5 ± 8.43 µM | 58 ± 4.76 µM |  |  |  |  | 
7 | CC1=CC(C)=[N+]2C1=C(c1nccs1)c1c(C)cc(C)n1[B-]2(F)F [Compound 1g] | 1.49 | 55.7 ± 1.65 µM | <0.83 | > 100 µM | 82.8 ± 1.2 µM |  |  |  |  | 
8 | CC1=CC(C)=[N+]2C1=C(c1ccc3ccccc3n1)c1c(C)cc(C)n1[B-]2(F)F [Compound 1h] | 1.24 | 77.4 ± 3.46 µM | <0.96 | > 100 µM | 95.6 ± 3.45 µM |  |  |  |  | 
9 | CC1=CC(C)=[N+]2C1=C(c1cc3sccc3s1)c1c(C)cc(C)n1[B-]2(F)F [Compound 1i] | 1.58 | 61.5 ± 10.9 µM | 1.05 | 92.2 ± 10 µM | 96.8 ± 4.5 µM |  |  |  |  | 
10 | CC1=C(C=O)C(C)=[N+]2C1=C(c1ccccc1)c1c(C)cc(C)n1[B-]2(F)F [Compound 2a] | 1.22 | 74.7 ± 6.93 µM | <0.91 | > 100 µM | 91.33 ± 0.66 µM |  |  |  |  | 
11 | CC1=CC(C)=[N+]2C1=C(c1ccc(N(C)C)c3ccccc13)c1c(C)c(C=O)c(C)n1[B-]2(F)F [Compound 2b] | 24 and 24.34 | 2.84 ± 0.04 µM | 4.39 | 15.8 ± 1.31 µM | 69.1 ± 4.9 µM | present antileishmanial activity | present antitrypanosomal activity |  |  | 
12 | CC1=C(C=O)C(C)=[N+]2C1=C(c1c3ccccc3cc3ccccc13)c1c(C)cc(C)n1[B-]2(F)F [Compound 2c] | 11 and 10.84 | 6.17 ± 2.35 µM | 6.47 | 10.3 ± 1.59 µM | 66.9 ± 7.65 µM | present antileishmanial activity | present antitrypanosomal activity |  |  | 
13 | CC1=C(C=O)C(C)=[N+]2C1=C(c1ccc(N(c3ccccc3)c3ccccc3)cc1)c1c(C)cc(C)n1[B-]2(F)F [Compound 2d] | 3.56 | 22.7 ± 1.88 µM | <0.81 | > 100 µM | 81.1 ± 3.9 µM |  |  |  |  | 
14 | CCn1c2ccccc2c2cc(C3=C4C(C)=C(C=O)C(C)=[N+]4[B-](F)(F)n4c(C)cc(C)c43)ccc21 [Compound 2e] | 5.89 | 15.2 ± 0.86 µM | 4.33 | 20.7 ± 1.79 µM | 89.7 ± 9.08 µM |  |  |  |  | 
15 | CC1=C(C=O)C(C)=[N+]2C1=C(c1cccs1)c1c(C)cc(C)n1[B-]2(F)F [Compound 2f] | 6.54 | 12.4 ± 4.02 µM | 4.10 | 19.7 ± 3.21 µM | 80.9 ± 1.06 µM | does not present antileishmanial activity | present antitrypanosomal activity |  |  | 
16 | CC1=C(c2nc3ccccc3[nH]2)C(C)=[N+]2C1=C(c1ccccc1)c1c(C)cc(C)n1[B-]2(F)F [Compound 3a] | 11.38 | 5.5 ± 0.21 µM |  | > 100 µM | 63 µM and 62.6 µM |  | present antitrypanosomal activity |  |  | 
17 | CC1=CC(C)=[N+]2C1=C(c1ccc(N(C)C)c3ccccc13)c1c(C)c(-c3nc4ccccc4[nH]3)c(C)n1[B-]2(F)F [Compound 3b] | >3.59 | 27.9 ± 5.42 µM | >1.18 | 84.39 ± 0.32 µM | > 100 µM |  |  |  |  | 
18 | CC1=C(C=O)C(C)=[N+]2C1=C(c1c3ccccc3cc3ccccc13)c1c(C)c(C=O)c(C)n1[B-]2(F)F [Compound 3c] | 1.53 |  | 6.91 |  |  | present antileishmanial activity | present antitrypanosomal activity | 14.2 ± 0.31 µM | 3.13 ± 0.13 µM | 21.7 ± 3.46 µM
